According to patent publication US20220144915A1, “STABILIZATION OF PRANDIAL OR BASAL INSULIN ANALOGUES BY AN INTERNAL DISELENIDE BRIDGE” (THE TRUSTEES OF INDIANA UNIVERSITY, priority 2019, published 2022):

Assays:
MCF-7 = assay: Mitogenicity: cyclin D1 / cyclin G2 mRNA by q-RT-rtPCR in MCF-7 cells; assay type: cell-based, human
Excerpt: Increased expression of the gene encoding cyclin D1 and decreased expression of the gene encoding cyclin G2 are characteristic of cellular proliferation in response to signaling by mitogenic insulin analogues or IGFs.
An assay for relative mitogenicity among insulin analogues is provided by transcriptional signaling leading to reciprocal regulation of the genes encoding cyclin D1 and cyclin G2 (Glidden, M. D., et al. (2018) J. Biol. Chem. 293: 47-68).

[1] = side-chain -SH versus -SeH; cited from earlier work

| Compound | mitogenic signature (cyclin D1 activation, cyclin G2 repression) (MCF-7) | pKa [1] |
| --- | --- | --- |
| IGF-1: mitogenic growth factor, positive control | stimulates cyclin D1 transcription and inhibits cyclin G2 transciption to a more marked extent |  |
| N[C@@H](C[SeH])C(=O)O [Sec, selenocysteine] |  | approximately 5.2 |
| N[C@@H](CS)C(=O)O [Cys, cysteine] |  | approximately 8.3 |
